Assay results published in PubChem BioAssay (NCI).
Values joined by “and” are separate entries in the source; they are usually repeats but may differ in a detail not shown here. Equal values may be shown once.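 Five concentrations, 48 hours, 96-well plates. GI50 = concentration required for 50% inhibition of growth. TGI denotes the concentration required for complete inhibition of growth.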

test system: MDA-MB-468 breast; assay: inhibition of tumour cell growth, NCI panel, 48 h

| Structure (SMILES) | GI50 | TGI |
| --- | --- | --- |
| COC(=O)[C@]12CC[C@@H](C)[C@H](C)[C@@H]1C1=CC[C@@H]3[C@@]4(C)CC(=O)[C@H](O)[C@@]5(C)COC(=C45)C[C@@]3(C)[C@]1(C)CC2 | 14900 nM | 30500 nM |
| CCCCCCCCCCCCc1ccc(C(=O)/C=C/C(=O)O)cc1 | 1660 nM | 3350 nM |
| O=C(Nc1n[nH]c2nc(-c3ccco3)c(Br)cc12)C1CC1 |  | > 25000 nM |
| Cc1cc(NC(=O)C2c3ccccc3C(=O)N(CC(C)C)C2c2cccs2)no1 (stereo not given) | 43800 nM | > 100000 nM |
| CCCCCCCCCCCCCCCCCCNC(=O)[C@H]1CSC(c2ccc(OC)c(F)c2)N1 (stereo not given in full) | 18600 nM | > 50900 nM |
| COc1ccc(/C(=C/c2cc(OC)c(OC)c(OC)c2)[N+](=O)[O-])cc1 | 2010 nM | 4780 nM |
| COc1cc[nH]c1/C=C1\C(=O)Nc2ccc(F)c(C#C[C@@H](O)[C@@H](N)[C@@H](C)O)c21 | 476 nM | 1180 nM |
| COc1cc2c(cc1OC)C(=O)C(Br)CC2 (stereo not given) | 1280 nM | 3570 nM |
| O=C1C=C[C@]2(C[C@@H](c3cccc(C(F)(F)F)c3)O[C@@H](c3cccc(C(F)(F)F)c3)O2)O1 | 1670 nM | 3590 nM |
| COc1cc2cc(Oc3ccc(NC(=O)Nc4cccc(C(F)(F)F)c4)cc3)c(C)nc2cc1OCCN1CCCCC1 | 1590 nM | 3210 nM |
| Cc1cc2c(C)c3cc(C)c(N)cc3nc2cc1N | 399 nM | 2370 nM |
| C1CCC([PH+](C2CCCCC2)C2CCCCC2[PH+](C2CCCCC2)C2CCCCC2)CC1.[Au].[CH-]1CCCCC1C1CCCC[N-]1 (stereo not given) | 154 nM | 641 nM |
| C[C@H]1[C@H](OC(=O)CCC(=O)O)O[C@@H]2O[C@]3(C)CC[C@H]4[C@H](C)CC[C@@H]1[C@@]24OO3 | 2860 nM | 24700 nM |
| OB([O][Hg][c]1ccccc1)[O][Hg][c]1ccccc1 | 88.5 nM | 303 nM |
| CCC1(OC(=O)CN2CCN(CCO)CC2)C(=O)OCc2c1cc1n(c2=O)Cc2cc3ccccc3nc2-1 (stereo not given) | 149 nM | 449 nM |
| N#C/C(=C\c1c(-c2ccccc2)[nH]c2ccccc12)C(=O)c1ccc(Cl)cc1 | 527 nM | 6290 nM |
| COc1ccc(N(C)c2nc(C)nc3ccccc23)cc1 | < 10 nM | < 10 nM |
| CS(=O)(=O)c1nccc(-c2c(-c3ccc(F)c(OCCc4ccc(F)cc4)c3)nc3sccn23)n1 | 1810 nM | 3530 nM |
| COc1cc(-c2cc(C(=O)N3CCN(C(=O)c4ccccc4NCc4ccco4)CC3)nc3cc(-c4ccccc4)nn23)cc(OC)c1OC | 2320 nM | 7200 nM |

| Structure (SMILES) | GI50 | TGI |
| --- | --- | --- |
| O=[N+]([O-])c1ccc(N/N=C\c2cc(Cl)ccc2O)nc1 | 2510 nM | 7250 nM |
| COc1cc(CCc2cc(NC(=O)c3ccc(N4C[C@@H](C)N[C@@H](C)C4)cc3)n[nH]2)cc(OC)c1 | > 10000 nM and 8100 nM | > 10000 nM and 20800 nM |
| O=C1/C(=C\c2ccc(Cl)cc2)CN(C(=S)Nc2ccccc2)C/C1=C\c1ccc(Cl)cc1 | 457 nM | 1660 nM |
| COc1cc2cc(Oc3ccc(NC(=O)Nc4ccc(F)c(C(F)(F)F)c4)cc3)c(C)nc2cc1OCCN1CCCCC1 | 1470 nM | 2920 nM |
| C[C@@H](c1ccc2nccn2c1)n1nnc2ncc(-c3cnn(C)c3)nc21 | 38600 nM | > 100000 nM |
| Cn1cc(-c2ccc(=O)n(Cc3cccc(-c4ncc(OCCN5CCOCC5)cn4)c3)n2)cn1 | 14400 nM | 86800 nM |
| COc1cccc(NC(=O)c2sc3nc4c(cc3c2N)CCCC4)c1 | 239 nM | 874 nM |
| COc1ccc(/C=C2\CN(C(=O)CCN3CCC(=NO)CC3)C/C(=C\c3ccc(OC)cc3)C2=O)cc1 | 2010 nM | 4580 nM |
| COc1ccc([C@H]2C(=O)N(c3cc(OC)c(OC)c(OC)c3)[C@@H]2c2ccc(OC)c(O)c2)cc1 | 23 nM | 62.8 nM |
| Cc1ccc(S(=O)(=O)NC(CCC(=O)Nc2ccc(Cl)cc2)C(=O)Nc2ccc(Cl)cc2)cc1 (stereo not given) | 1290 nM | 6530 nM |
| COc1ccc(-c2cc(-c3ccc(Nc4nc(Nc5ccc(Cl)cc5)nc(Nc5ccc(Cl)cc5)n4)cc3)nc(N)c2C#N)cc1 | 369 nM | 1960 nM |
| COc1ccccc1C(=O)/C=C/c1cc2cccc(OC)c2[nH]c1=O | 104 nM | 2010 nM |
| O/N=C1\CCc2cc(-c3nc(C4CCNCC4)[nH]c3-c3ccncc3)ccc21 | > 25000 nM | > 25000 nM |
| O=C1[C@H]2Cc3c([nH]c4ccccc34)[C@@H](c3ccc(Br)cc3)N2C(=O)CN1C1CCN(Cc2ccccc2)CC1 | 1140 nM | 4850 nM |
| CC1(C)N=C(N)N=C(N)N1c1cccc(/C=C/C=C/c2cccc([N+](=O)[O-])c2)c1 | 346 nM | 12000 nM |
| CCOC(=O)c1cnc(SCc2ccc(Cl)c(Cl)c2)nc1N1CC1 | 2400 nM | 6140 nM |
| O=C(Nc1ccncc1)C(=O)c1cn(S(=O)(=O)c2ccc(Br)cc2)c2ccccc12 | 608 nM | 7840 nM |
| Nc1cccc2c1C(=O)N(C1CCC(=O)NC1=O)C2=O (stereo not given) | > 100000 nM | > 100000 nM |
| O=C1c2cc3c(cc2-c2c1c1cc(Cl)c(Cl)cc1c(=O)n2CCCn1ccnc1)OCO3 | < 10 nM | 45.8 nM |
